From patent US9447069B2, “ROR modulators and their uses” (INNOV17 LLC, priority 2012, dated 2016) come the findings set out here.

Broadly, the IC50 is the midpoint of a concentration-inhibition curve. Usually viability stands for a per cent measure of how many cells are alive, often set against a control.

The test system of data set [1] is IL-22. As to the kind of experiment: TH17 cytokine inhibition measured by ELISA (IL-22). It counts as cell-based. The following applies: 120 h; human TH17 cells, 5 days differentiation, ELISA of supernatants, 0.1% DMSO. How it is done:
(§1) Peripheral blood mononuclear cells (PBMCs) were sourced from freshly prepared leukocyte enriched plasma (buffy coat) from healthy volunteers from which PBMCs were isolated by density gradient centrifugation using Ficoll-Paque™ PLUS (GE Healthcare). Naïve CD4+ T cells were isolated using the Naïve CD4+ T cell Isolation Kit II (Miltenyi Biotec) as per manufacturer's instructions. CD4+ T cells were plated at 5×10^4 cells/well in 96 well plates pre-coated with immobilized human (h)-αCD3 antibody (eBioscience) then differentiated to TH17 cells using h-αCD28, h-αIFN-γ, h-αIL-4, h-IL-6, h-IL-23, h-IL-1β, h-TGF-β1 (eBioscience) and maintained in a cell culture incubator at 37° C. with 5% CO2 in TexMACS Medium (Miltenyi Biotec) supplemented with 1% Penicillin/Streptomycin (Lonza) over 5 days.
(§2) Human CD4+ T cells were differentiated to TH17 cells as described in the presence or absence of various concentrations of compounds in a final concentration of 0.1% DMSO in TexMACS medium. Supernatants were collected and stored at −20° C. until they were to be assayed for IL-17A, IL-17F, IL-17AF, IL-21 and/or IL-22 levels as determined by Ready-Set-Go ELISA kits (eBioscience) as per manufacturer's instructions. Endpoint absorbance was read at 450 nm and 570 nm according to manufacturer's instructions (eBioscience) using a microplate reader (Perkin Elmer). The percentage of cytokine inhibition was calculated with reference to DMSO treated cells and the IC50s were determined by GraphPad Prism software and presented in the table below.
(In an ELISA, binding on a coated surface is turned into a signal by an enzyme label.)

For data set [2], the system named is IL-17AF. Kind of data set: TH17 cytokine inhibition measured by ELISA (IL-17AF). In kind it is cell-based. To be noted: 120 h; human TH17 cells, 5 days differentiation, ELISA of supernatants, 0.1% DMSO. How it is done:
as §1, §2

Data set [3] deals with IL-21. As to the kind of experiment: TH17 cytokine inhibition measured by ELISA (IL-21). It counts as cell-based. The following applies: 120 h; human TH17 cells, 5 days differentiation, ELISA of supernatants, 0.1% DMSO. How it is done: as §1, §2
Data set [4] relates to IL-21. Kind of data set: Real-Time qRT-PCR gene expression in TH17 cells (IL-21). In kind it is cell-based, human. More on the design: key: A: No change in gene expression observed relative to DMSO treated Th17 cells; B: Decreased gene expression observed relative to DMSO treated Th17 cells; C: Increased gene expression observed relative to DMSO treated Th17 cells. To be noted: normalized to six reference genes. How it is done: as §1
RNA was isolated from TH17 cells and cDNA was synthesized using the Verso cDNA kit (Thermo Scientific) as per manufacturer's instructions. IL-17A, IL-17F, IL-21, IL-22, G-CSF, IL-23R and FOXP3 gene expression were determined for compound treated and untreated TH17 cell samples using Solaris qPCR Gene expression assays (Thermo Scientific) with an iCycler iQ Real-Time PCR Detection System (Bio-Rad). Individual gene expression was normalized to a panel of six reference genes (ACTB, TBP, HPRT1, PGK1, TFRC and PPIA) (Thermo Scientific) and analyzed by REST 2009 (Qiagen) in accordance to MIQE guidelines (Bustin et al. (2009) Clin. Chem, 55:611-622). The effects of compounds on TH17 cytokine gene expression are presented as fold change in mRNA levels of compound treated TH17 cells relative to DMSO treated cells in the table below.
For orientation: Quantitative PCR measures a nucleic acid by following its amplification.

Data set [5] is described as follows: TH17 cell viability (Prestoblue). In kind it is cell-based. To be noted: human; 1 μM compound, after 5 days, percentage of DMSO treated cells. How it is done:
as §1
Cells were assayed for viability in the presence or absence of 1 μM compound using Prestoblue® Cell Viability Reagent (Life Technologies) as per manufacturer's instructions after 30 minutes incubation of TH17 cells with reagent. Absorbance was measured at 570 nm and 600 nm using a microplate reader (Perkin Elmer) and data were analyzed as per manufacturer's instructions. Cell viability was determined after 5 days and expressed as a percentage of DMSO treated cells.

As for `Cc1cc(-c2ccc3c(c2)CCCN3Cc2ccc(C(O)(C(F)(F)F)C(F)(F)F)cc2)[nH]n1` [Example 1, 1,1,1,3,3,3-hexafluoro-2-(4-((6-(3-methyl-1H-pyrazol-5-yl)-3,4-dihydroquinolin-1(2H)-yl)methyl)phenyl)propan-2-ol], the IC50 in data set [1], in data set [2] and in data set [3] was < 10 µM throughout. For the same molecule, in data set [4], the “Fold change in mRNA levels of compound treated TH17 cells relative to DMSO treated cells, IL-21” value was “B”. Also, the viability at 5 days, 1 µM in data set [5] was > 80%.
Turning to `OC(c1ccc(CN2CCCc3cc(-c4cn[nH]c4)ccc32)cc1)(C(F)(F)F)C(F)(F)F` [Example 2, 2-(4-((6-(1H-pyrazol-4-yl)-3,4-dihydroquinolin-1(2H)-yl)methyl)phenyl)-1,1,1,3,3,3-hexafluoropropan-2-ol], the IC50 in data set [1], in data set [2] and in data set [3] was < 10 µM throughout. In addition, in data set [4], the “Fold change in mRNA levels of compound treated TH17 cells relative to DMSO treated cells, IL-21” value is given as “B”. Further, the viability at 5 days, 1 µM in data set [5] is > 80%.
As to `Cc1n[nH]c(-c2ccc3c(c2)CCCN3Cc2ccc(C(O)(C(F)(F)F)C(F)(F)F)cc2)n1` [Example 3, 1,1,1,3,3,3-hexafluoro-2-(4-((6-(3-methyl-1H-1,2,4-triazol-5-yl)-3,4-dihydroquinolin-1(2H)-yl)methyl)phenyl)propan-2-ol], the IC50 in data set [1], in data set [2] and in data set [3] was < 10 µM in each case. The “Fold change in mRNA levels of compound treated TH17 cells relative to DMSO treated cells, IL-21” value in data set [4] is reported as “B”. Further, the viability at 5 days, 1 µM in data set [5] was > 80%.
Regarding `Cc1cc(-c2ccc3c(c2)CCC(=O)N3Cc2ccc(C(O)(C(F)(F)F)C(F)(F)F)cc2)[nH]n1` [Example 4, 1-(4-(1,1,1,3,3,3-hexafluoro-2-hydroxypropan-2-yl)benzyl)-6-(3-methyl-1H-pyrazol-5-yl)-3,4-dihydroquinolin-2(1H)-one], the IC50 in data set [1] is < 10 µM. Also, the “Fold change in mRNA levels of compound treated TH17 cells relative to DMSO treated cells, IL-21” value in data set [4] is listed as “B”. The viability at 5 days, 1 µM in data set [5] is > 80%.
Consider `O=C1CCc2cc(-c3cn[nH]c3)ccc2N1Cc1ccc(C(O)(C(F)(F)F)C(F)(F)F)cc1` [Example 5, 1-(4-(1,1,1,3,3,3-hexafluoro-2-hydroxypropan-2-yl)benzyl)-6-(1H-pyrazol-4-yl)-3,4-dihydroquinolin-2(1H)-one], for which the IC50 in data set [1], in data set [2] and in data set [3] was < 10 µM throughout. Also, the “Fold change in mRNA levels of compound treated TH17 cells relative to DMSO treated cells, IL-21” value in data set [4] was “A”. Besides, in data set [5], the viability at 5 days, 1 µM is < 80%.
With `Cc1n[nH]c(-c2ccc3c(c2)CCC(=O)N3Cc2ccc(C(O)(C(F)(F)F)C(F)(F)F)cc2)n1` [Example 6, 1-(4-(1,1,1,3,3,3-hexafluoro-2-hydroxypropan-2-yl)benzyl)-6-(3-methyl-1H-1,2,4-triazol-5-yl)-3,4-dihydroquinolin-2(1H)-one], the IC50 in data set [1] is < 10 µM. The “Fold change in mRNA levels of compound treated TH17 cells relative to DMSO treated cells, IL-21” value in data set [4] was “A”. The viability at 5 days, 1 µM in data set [5] is > 80%.
